In patent US9724348B2, “Crystalline forms” (VM Therapeutics LLC, priority 2013, dated 2017):

Tests used:
SNL rats = test: Spinal Nerve Ligation (SNL) mono-neuropathic pain model in rat, von Frey paw withdrawal threshold; assay type: in vivo; details: oral gavage, dose-dependent
Protocol: Spinal Nerve Ligation (SNL) Mono-Neuropathic Pain Model in Rat. The surgical procedure will be performed according to the method firstly described by Kim and Chung (Kim S H, Chung J M. Pain. 1992; 50(3):355-63.). This procedure will result in tactile allodynia in the left hindpaw. […] The dose-response anti-allodynia effects of test compound: on day 14 after surgery, rats were treated with test article at one of four doses, vehicle or positive control by oral gavage, and PWT was determined by calibrated von Frey filaments at time points of 0 (right before the drug dosing, Pre-Dose Baseline), 0.5, 1, 2, 4 and 6 hr. The anti-allodynia effects of repeated administration of test article: Administration of test article was started on day 7 after surgery, once a day for 7 days. PWT was determined by calibrated von Frey filaments, 2 hour after test article dosing each day. After 7 days dosing, the measurement were continued, every other day without compound dosing for another 7 days. PWT was determined at the time points as given above.

[1] = test system: rat CFA-induced inflammatory pain; test: Rat CFA-induced inflammatory pain model; assay type: in vivo; details: oral dose, FIG. 15
Protocol: Rat CFA-Induced Inflammatory Pain Model. Hyperalgesia was induced by subcutaneously injecting […] of CFA (Sigma-Aldrich, St. Louis, Mo., USA) into the plantar surface of the left hind paw of the rats using a 30-gauge hypodermic needle under sevoflurane anesthesia. The classical signs of inflammation, including edema and redness, for up the last day of tests were recorded. To assess the effect of test article on CFA-induced inflammatory pain, the rats were anesthetized with sevoflurane 3 hours after CFA injection and then orally dosed with test article (n=6) or vehicle (n=6) or positive control. Paw withdrawal latencies (thermal hyperalgesia) are measured before and at 2 and 4 hours after CFA injection. Mechanical thresholds were also measured in the same way with either the compound of current invention (n=6) or vehicle (n=6) or positive control, Naproxen (n=6) at similar different time points (for example, 1 and 3 hour). The noxious heat and mechanical thresholds were separately measured in each group of rats. The threshold was measured 3-5 times in each rat and then averaged. Stimulus interval was 5 min.

anxiety disorders = details: human clinical studies; cited from earlier work
CCI rats = test: Chronic Constriction Injury (CCI) model of neuropathic pain in rat, von Frey paw withdrawal threshold; assay type: in vivo
Source text: Chronic Constriction Injury (CCI) Model of Neuropathic Pain in Rat. The CCI model is one of the most commonly used mono-neuropathic pain model firstly described in details by Bennett and Xie (Bennett G J, Xie Y K. Pain. 1988; 33(1):87-107). It mimics important clinical chronic pain symptoms such as mechanical allodynia and thermal hyperalgesia. Chronic constriction injury of the sciatic nerve was produced by tying four loose ligatures around the left sciatic nerve according to the method of Bennett and Xie. […] Calibrated von Frey filaments were used to determine the lowest mechanical (tactile) threshold required to evoke a brisk paw withdrawal reflex in the rat hindpaws. Rats were allowed to acclimatize in wire mesh cages for 15-20 min prior to von Frey testing. Assessment of paw withdrawal thresholds (PWTs) using von Frey filaments was undertaken prior to CCI-surgery (pre-surgery baseline on day 0). Before the drug dosing on day 14, the pre-dose baseline was recorded for each rat. […] Drug-naïve CCI-rats (n=4-6 per group) were used. The oral (PO) gavage vehicle was either 10% (w/v) Povidone K25 in water for PO dosing, or 18% (w/v) CrosPovidone in water for PO dosing, or 0.5% CMC-Na/0.1% Tween 80 in distilled water for PO dosing. The positive control gabapentin was dissolved in the vehicle and orally given at 100 mg/kg (by oral gavage). Test article was dissolved or suspended in the vehicle and orally given at 25, 50, 100 and 150 mg/kg. Each CCI-rat was administered a single oral dose of test article, gabapentin or vehicle control, 2 hours before assessment of PWT.

[2] = Competitive slurries of polymorphic forms; assay type: physicochemical; details: competitive slurries in IPA, IPA and water, and acetone at ambient temperature and about 40° C.; all gave complete conversion to Form 2
Protocol: The DSC of Form 2 has a single endotherm at about 160° C. Competitive slurries in IPA, IPA and water, and acetone at ambient temperature and about 40° C., all results in complete conversion to Form 2.

[3] = Solid form conversion on drying or during DSC; assay type: physicochemical; details: drying at 80° C. or during a DSC experiment
Protocol: Also, Form 5 can be possibly isostructural with Form 2 or Form 2′, or the differences between these forms may relate to the presence or absence of a particular amount of surface water.
Form 5 may convert to a different form (Form 2′) which has a similar X-ray pattern to Form 2 on drying (80° C.), as shown in Table below and FIG. 11 (XRPD), FIG. 12 (^1H-NMR), and FIG. 13 (DSC).

SMILES: Cc1nc2ccccn2c(=O)c1CCN1CCC(C(=O)c2ccc(F)cc2)CC1 [Compound 10, 3-(2-{4-[(4-fluorophenyl)carbonyl]piperidin-1-yl}ethyl)-2-methyl-4H-pyrido[1,2-a]pyrimidin-4-one]
- mechanical allodynia (paw withdrawal threshold) (SNL rats): significantly reduced mechanical allodynia
- analgesic effect compared with positive control Naproxen [1]: more efficacious than positive control Naproxen
- anti-anxiety effects (anxiety disorders): did not show any dose-related anti-anxiety effects
- safety in human (anxiety disorders): safe in human
- potency relative to positive control gabapentin (CCI rats; CCI rats, oral, gabapentin 100 mg/kg): more than 100 time
- mechanical allodynia (paw withdrawal threshold) (CCI rats; CCI rats, single oral dose 25, 50, 100 and 150 mg/kg, PWT 2 hours after dosing, dose-dependent, FIG. 14): significantly reduced mechanical allodynia
- drowsiness, motor incoordination or other abnormality observed (CCI rats; rat, in vivo, po): no such effect or other abnormality was observed

SMILES: Cc1nc2ccccn2c(=O)c1CCN1CCC(C(=O)c2ccc(F)cc2)CC1 [Form 2, 3-(2-{4-[(4-fluorophenyl)carbonyl]piperidin-1-yl}ethyl)-2-methyl-4H-pyrido[1,2-a]pyrimidin-4-one]
- thermodynamic stability of crystalline form [2]: most thermodynamically stable form

SMILES: Cc1nc2ccccn2c(=O)c1CCN1CCC(C(=O)c2ccc(F)cc2)CC1 [Form 5, 3-(2-{4-[(4-fluorophenyl)carbonyl]piperidin-1-yl}ethyl)-2-methyl-4H-pyrido[1,2-a]pyrimidin-4-one]
- solid form stability on drying [3]: can convert to a Form 2′ on drying

SMILES: NCC1(CC(=O)O)CCCCC1 [gabapentin, reference compound]
- drowsiness, motor incoordination or other abnormality observed (CCI rats; CCI rats after single oral dose): drowsiness or motor incoordination
